In paper PMC11946679 (Toxics, 2025):
Read-outs that look alike come from different tables or passages of the source.

Tested on: human peripheral blood lymphocytes
Type: cell-based
Settings: 3 h
Excerpt: While screening microscope preparations to determine trends in the levels of the main CBMN assay descriptors, nonviable cells were also simultaneously counted on the same slides. Their discrimination was based on the specific morphological features typical for apoptosis or necrosis. It is well known that the biological significance of these phenomena differs deeply, and that the determination of the predominant type of cell death represents a very important issue in each experimental setting.
For each experimental group, we also calculated the ratio between the recorded number of nonviable cells and the cells in apoptosis (Table 5). According to reference, a ratio ≤ 1 means a prevalence of apoptotic events that induce cell death, while a ratio > 1 indicates the acute toxicity of the tested substance that promotes necrosis.

[1] = scored along with 4000 binucleated cells, 1× + IRI 9.0 mg/L, propolis 1.36 mg/L, galangin 0.02 mg/L
[2] = scored along with 4000 binucleated cells, 5× + IRI 9.0 mg/L, propolis 6.8 mg/L, galangin […]
[3] = scored along with 4000 binucleated cells, 10× + IRI 9.0 mg/L, propolis 13.6 mg/L, galangin 0.22 mg/L

Structure (SMILES): O=c1c(O)c(-c2ccccc2)oc2cc(O)cc(O)c12 [Galangin]
- Ratio (nonviable cells and cells in apoptosis) (1× + IRI 9.0 mg/L, propolis 1.36 mg/L, galangin 0.02 mg/L): 0.5
- Ratio (nonviable cells and cells in apoptosis) (5× + IRI 9.0 mg/L, propolis 6.8 mg/L, galangin […]): 0.5
- Ratio (nonviable cells and cells in apoptosis) (10× + IRI 9.0 mg/L, propolis 13.6 mg/L, galangin 0.22 mg/L): 0.6
- Ratio (nonviable cells and cells in apoptosis) (male, human, 0.02 mg/L): 0.5
- Total No. of Cells in Apoptosis (male, human, 0.02 mg/L): 7
- Total No. of Nonviable Cells (male, human, 0.02 mg/L): 14
- Ratio (nonviable cells and cells in apoptosis) (male, human, 0.22 mg/L): 0.7
- Total No. of Cells in Apoptosis (male, human, 0.22 mg/L): 8
- Total No. of Nonviable Cells (male, human, 0.22 mg/L): 12
- Total No. of Cells in Apoptosis [1]: 28
- Total No. of Nonviable Cells [1]: 52
- Total No. of Cells in Apoptosis [2]: 23
- Total No. of Nonviable Cells [2]: 42
- Total No. of Cells in Apoptosis [3]: 19
- Total No. of Nonviable Cells [3]: 34
